According to article PMC6857051, “Proliferative regulation of alveolar epithelial type 2 progenitor cells by human Scnn1d gene” (Theranostics, 2019):

Columns and labels:
Assay type in all cases: cell-based
[1] = molecular target: ENaC activity in mouse tracheal epithelial (MTE) monolayers, control; assay: Ussing chamber short-circuit current, control MTE monolayers (uninduced δ802Tg)
[2] = molecular target: ENaC activity in δ802-ENaC expressing mouse tracheal epithelial (MTE) monolayers; assay: Ussing chamber short-circuit current, δ-ENaC MTE monolayers (induced δ802Tg/Cre)
human αβγ-ENaC = molecular target: T1, human αβγ-ENaC (Homo sapiens, UniProt P37088+P51168+P51170); assay: Two-electrode voltage clamp of αβγ-ENaC expressed in Xenopus oocytes
T1 construct: expressed in transfected cells; host or cells: Xenopus laevis oocytes injected with cRNA (pGEM HE vector)
T1 sequence (P37088 1-669): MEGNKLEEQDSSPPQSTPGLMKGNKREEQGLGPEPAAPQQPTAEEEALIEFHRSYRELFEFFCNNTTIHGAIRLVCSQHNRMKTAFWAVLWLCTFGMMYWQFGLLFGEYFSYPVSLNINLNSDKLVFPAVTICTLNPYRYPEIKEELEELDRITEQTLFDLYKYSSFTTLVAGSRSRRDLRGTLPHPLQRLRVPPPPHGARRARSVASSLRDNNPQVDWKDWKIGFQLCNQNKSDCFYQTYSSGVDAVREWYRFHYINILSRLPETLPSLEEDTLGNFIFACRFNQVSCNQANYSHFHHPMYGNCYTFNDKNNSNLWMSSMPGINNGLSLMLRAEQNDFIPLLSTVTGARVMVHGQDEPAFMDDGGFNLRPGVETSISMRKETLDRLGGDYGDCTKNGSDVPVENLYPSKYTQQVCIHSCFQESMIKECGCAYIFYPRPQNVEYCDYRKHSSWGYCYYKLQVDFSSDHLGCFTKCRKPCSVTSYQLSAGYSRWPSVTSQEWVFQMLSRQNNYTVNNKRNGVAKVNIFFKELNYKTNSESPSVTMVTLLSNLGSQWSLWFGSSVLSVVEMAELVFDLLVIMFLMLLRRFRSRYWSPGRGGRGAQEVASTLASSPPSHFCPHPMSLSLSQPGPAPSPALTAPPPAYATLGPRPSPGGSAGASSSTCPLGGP
T1 sequence (P51168 1-640): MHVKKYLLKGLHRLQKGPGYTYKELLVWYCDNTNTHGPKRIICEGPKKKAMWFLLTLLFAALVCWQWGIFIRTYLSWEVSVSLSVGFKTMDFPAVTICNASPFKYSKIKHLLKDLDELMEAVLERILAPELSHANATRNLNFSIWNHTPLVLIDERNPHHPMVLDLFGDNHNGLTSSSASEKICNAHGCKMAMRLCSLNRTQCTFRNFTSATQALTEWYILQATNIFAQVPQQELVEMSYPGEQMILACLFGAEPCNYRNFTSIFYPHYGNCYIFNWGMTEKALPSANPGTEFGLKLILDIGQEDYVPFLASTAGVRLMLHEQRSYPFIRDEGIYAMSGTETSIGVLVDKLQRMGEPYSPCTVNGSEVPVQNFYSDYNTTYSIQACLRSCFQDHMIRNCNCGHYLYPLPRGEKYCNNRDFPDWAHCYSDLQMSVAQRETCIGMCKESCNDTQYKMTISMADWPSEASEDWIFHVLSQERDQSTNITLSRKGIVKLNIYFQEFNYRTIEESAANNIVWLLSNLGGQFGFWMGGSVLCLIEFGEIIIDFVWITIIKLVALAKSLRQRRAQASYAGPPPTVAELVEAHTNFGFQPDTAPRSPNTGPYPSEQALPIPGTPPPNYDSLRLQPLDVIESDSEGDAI
T1 sequence (P51170 1-649): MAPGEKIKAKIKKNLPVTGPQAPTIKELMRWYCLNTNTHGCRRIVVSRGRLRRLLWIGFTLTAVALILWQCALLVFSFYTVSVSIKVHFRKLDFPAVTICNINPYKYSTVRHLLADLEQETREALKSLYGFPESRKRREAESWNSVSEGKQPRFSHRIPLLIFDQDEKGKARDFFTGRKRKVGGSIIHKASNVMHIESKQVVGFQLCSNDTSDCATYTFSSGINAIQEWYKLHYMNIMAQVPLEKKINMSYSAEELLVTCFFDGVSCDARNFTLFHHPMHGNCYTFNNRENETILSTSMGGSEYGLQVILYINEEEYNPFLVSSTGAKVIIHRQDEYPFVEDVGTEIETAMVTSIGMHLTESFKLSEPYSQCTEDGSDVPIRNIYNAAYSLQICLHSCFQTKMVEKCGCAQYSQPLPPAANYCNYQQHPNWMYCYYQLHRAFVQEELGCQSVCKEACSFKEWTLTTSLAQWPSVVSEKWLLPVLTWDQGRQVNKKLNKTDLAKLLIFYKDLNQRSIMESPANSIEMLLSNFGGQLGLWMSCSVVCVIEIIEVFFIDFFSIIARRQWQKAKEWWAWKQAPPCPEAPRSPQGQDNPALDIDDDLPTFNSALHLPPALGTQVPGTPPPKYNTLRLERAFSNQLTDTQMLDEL
Method: Cloning, in vitro transcription, and heterologous expression of δ802 ENaC and two-electrode voltage clamping assay. δ802 and other ENaC subunits were generated in human ENaC cDNAs cloned into a pGEM HE vector [4], [76]. cRNAs of human α, β, and γ ENaC were prepared as described previously. The stoichiometry of native ENaC complexes is unclear to date. Based on the studies in the last decade, several models have been proposed for αβγ ENaC channels: 1α1β1γ, 2α1β1γ, 3α3β3γ. Based on the EM structure of human αβγ ENaC [35], the currently acceptable model of human αβγ ENaC complexes is heterotrimeric (1α1β1γ). Thus we microinjected δ802:β:γ in a 1:1:1 subunit ratio. Oocytes were surgically removed from appropriately anesthetized adult female Xenopus laevis (Xenopus Express). Briefly, the ovarian tissue was removed from the frog under anesthesia by tricaine-S (Western Chemicals) through a small incision in the lower abdomen. Ovarian lobes were removed and digested in OR-2 calcium-free medium (in mM: 82.5 NaCl, 2.5 KCl, 1.0 MgCl2, 1.0 Na2HPO4, and 10.0 HEPES, pH 7.5) with the addition of 2 mg/ml collagenase (Roche, Indianapolis). Defolliculated oocytes were injected with ENaC cRNAs into the cytosol (25 ng per oocyte in 50 nl of RNase-free water) and incubated in regular OR-2 medium at 18°C. The two-electrode voltage-clamp technique was used to record whole-cell currents 48 h post injection. Oocytes were impaled with two electrodes filled with 3M KCl, having resistance of 0.5 - 2 MΩ. A TEV-200A voltage-clamp amplifier (Dagan) was used to clamp oocytes with concomitant recording of currents. Two reference electrodes were connected to the bath. The continuously perfused bathing solution was ND-96 medium (in mM: 96.0 NaCl, 1.0 MgCl2, 1.8 CaCl2, 2.5 KCl, and 5.0 HEPES, pH 7.5). Whole-cell currents were recorded as previously reported. Experiments were controlled by pCLAMP 10.7 software (Molecular Devices), and currents at -40 mV, -100 mV, and +80 mV were continuously monitored with data recorded at intervals of 10 sec. Data were sampled at the rate of 200 Hz and filtered at 50 Hz.

[3] = α-13 300 μM apical, MTE monolayers, n=6

N=C(N)NC(=O)c1nc(Cl)c(N)nc1N [amiloride]
Ki ([1]; Isc, Ussing chamber, amiloride 1 - 1,000 μM, n=5, read-out: ki value (logistic function), control MTE monolayers (converted)): 0.68 µM
Ki ([2]; Isc, Ussing chamber, amiloride 1 - 1,000 μM, n=5, read-out: ki value (logistic function), δ-ENaC MTE monolayers (converted)): 3.04 ± 0.26 µM

Ac-LRGTLPHPLQRLR-NH2 [α-13 peptide]
α-13 peptide-inhibitable fraction of Isc, control cells [1, 3]: 96%
α-13 inhibitable fraction of αβγ-ENaC channels after plasmin / aprotinin pre-treatment (human αβγ-ENaC; n=8, Figure 3E): not significantly affected by fibrinolytic activity
IC50 (human αβγ-ENaC; oocytes, current at -100 mV, n=4, Chi^2 = 0.44, R^2 = 0.993, read-out: IC50 on αβγ-ENaC channels (Hill equation)): 0.1 ± 0.01 µM
inhibition of human αβγ-ENaC current (human αβγ-ENaC; α-13 300 μM compared with amiloride 10 μM, -100 mV, subsequent amiloride did not reduce activity further): same efficacy as amiloride
α-13 peptide-inhibitable fraction of Isc, δ802-ENaC cells [2, 3]: 52%

B1: plasmin: serine protease of the plasmin(ogen) signal pathway for fibrinolysis (protein, UniProt P00747 20-580; P00747 581-810, looked up)
Plasmin heavy chain A: EPLDDYVNTQGASLFSVTKKQLGAGSIEECAAKCEEDEEFTCRAFQYHSKEQQCVIMAENRKSSIIIRMRDVVLFEKKVYLSECKTGNGKNYRGTMSKTKNGITCQKWSSTSPHRPRFSPATHPSEGLEENYCRNPDNDPQGPWCYTTDPEKRYDYCDILECEEECMHCSGENYDGKISKTMSGLECQAWDSQSPHAHGYIPSKFPNKNLKKNYCRNPDRELRPWCFTTDPNKRWELCDIPRCTTPPPSSGPTYQCLKGTGENYRGNVAVTVSGHTCQHWSAQTPHTHNRTPENFPCKNLDENYCRNPDGKRAPWCHTTNSQVRWEYCKIPSCDSSPVSTEQLAPTAPPELTPVVQDCYHGDGQSYRGTSSTTTTGKKCQSWSSMTPHRHQKTPENYPNAGLTMNYCRNPDADKGPWCFTTDPSVRWEYCNLKKCSGTEASVVAPPPVVLLPDVETPSEEDCMFGNGKGYRGKRATTVTGTPCQDWAAQEPHRHSIFTPETNPRAGLEKNYCRNPDGDVGGPWCYTTNPRKLYDYCDVPQCAAPSFDCGKPQVEPKKCPGR
Plasmin light chain B: VVGGCVAHPHSWPWQVSLRTRFGMHFCGGTLISPEWVLTAAHCLEKSPRPSSYKVILGAHQEVNLEPHVQEIEVSRLFLEPTRKDIALLKLSSPAVITDKVIPACLPSPNYVVADRTECFITGWGETQGTFGAGLLKEAQLPVIENKVCNRYEFLNGRVQSTELCAGHLAGGTDSCQGDSGGPLVCFEKDKYILQGVTSWGLGCARPNKPGVYVRVSRFVTWIEGVMRNN
modifications: Plasmin
notes: serine protease of the plasmin(ogen) signal pathway for fibrinolysis
effect of pre-treatment on αβγ-ENaC activity (human αβγ-ENaC; oocytes pre-treated, currents at -100 mV, n=5, Figure 3D): potentiated
